Laboratory results from ChEMBL document CHEMBL3120136 (J Med Chem, 2014).

Tests used:
[1] = system: Hepatitis C virus; assay: Antiviral activity against Hepatitis C virus infected in human HuH7 cells assessed as inhibition of HCV subgenomic replicon replication after 72 hrs by ELISA; type: functional, organism-based, Hepacivirus hominis, Huh-7; details: Hepatitis C virus, Huh-7, 72 h; read-out: EC50
[2] = Inhibition of Hepatitis C virus full-length NS3/4A protease assessed as quenched-fluorogenic RET-S1 substrate cleavage incubated for 10 mins prior to substrate addition by FRET analysis; parameters: species or system Hepacivirus hominis
[3] = Ratio of EC50 for Hepatitis C virus infected in human HuH7 cells to IC50 for Hepatitis C virus full-length NS3/4A protease; parameters: species or system Huh-7

In the case of `CC(C)(C)OC(=O)N[C@H]1CCCCC/C=C\[C@@H]2C[C@@]2(C(=O)O)NC(=O)[C@@H]2C[C@@H](OC(=O)N3CCc4ccccc4C3)CN2C1=O`, the EC50 [1] is reported as 2350 nM, the IC50 [2] is reported as 177 nM and the Ratio [3] is reported as 10.
